Assay results as given in patent US8754071B2 (priority 2011, dated 2014).

biological target: T1, c-kit (Homo sapiens, UniProt P10721); test: Mo7e cell proliferation assay (SCF dependent proliferation); assay type: cell-based; settings: Table 1; human Mo7e cells stimulated with SCF, 48 hours, CellTiter Glo; 1% FBS; read-out: c-kit (Mo7e)
T1 construct: human Mo7e cells which endogenously express c-kit; endogenous in cells; host or cells: human Mo7e cells (promegakaryocytic leukemia line), stimulated with human recombinant SCF
T1 sequence (P10721 26-976): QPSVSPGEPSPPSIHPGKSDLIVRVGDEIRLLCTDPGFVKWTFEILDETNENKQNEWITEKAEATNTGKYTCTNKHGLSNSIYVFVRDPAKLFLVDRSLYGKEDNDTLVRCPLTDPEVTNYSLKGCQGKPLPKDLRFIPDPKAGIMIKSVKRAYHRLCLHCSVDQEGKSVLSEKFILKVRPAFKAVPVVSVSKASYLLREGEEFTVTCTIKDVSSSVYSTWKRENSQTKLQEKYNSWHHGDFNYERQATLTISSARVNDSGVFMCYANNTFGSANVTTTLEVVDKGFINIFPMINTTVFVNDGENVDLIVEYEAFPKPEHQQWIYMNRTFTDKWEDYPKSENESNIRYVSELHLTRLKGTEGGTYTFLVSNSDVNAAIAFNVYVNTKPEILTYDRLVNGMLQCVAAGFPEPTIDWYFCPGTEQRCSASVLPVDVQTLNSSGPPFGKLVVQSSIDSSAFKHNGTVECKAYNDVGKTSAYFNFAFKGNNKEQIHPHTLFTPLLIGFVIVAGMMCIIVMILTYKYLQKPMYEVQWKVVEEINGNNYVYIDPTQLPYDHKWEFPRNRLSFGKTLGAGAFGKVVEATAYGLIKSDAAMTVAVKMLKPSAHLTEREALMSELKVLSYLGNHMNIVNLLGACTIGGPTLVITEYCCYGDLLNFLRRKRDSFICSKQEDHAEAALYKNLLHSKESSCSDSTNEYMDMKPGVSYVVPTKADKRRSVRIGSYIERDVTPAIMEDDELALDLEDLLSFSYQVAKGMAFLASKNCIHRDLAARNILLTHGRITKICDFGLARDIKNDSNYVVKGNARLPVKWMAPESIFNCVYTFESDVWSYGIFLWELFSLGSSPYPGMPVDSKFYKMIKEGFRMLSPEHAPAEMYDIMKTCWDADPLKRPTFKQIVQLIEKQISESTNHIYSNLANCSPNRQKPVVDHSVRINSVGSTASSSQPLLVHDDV
Experimental: Mo7e Cell Proliferation Assay The compounds of Table 1 and Table 2 were tested for inhibition of SCF dependent proliferation using human Mo7e cells which endogenously express c-kit in a 384 well format. […] After 48 hours of incubation at 37° C., cell viability was measured by adding 25 uL of CellTiter Glo (Promega) to the cells and the luminescence was measured by a […] camera (Molecular Devices). […] The IC50 value is given as that concentration of the test compound in question that provoke a response halfway between the baseline and maximum responses.

SMILES | IC50
Cc1ccc(-c2noc([C@@H]3CCN3C(=O)OC(C)(C)C)n2)cc1NC(=O)c1cnc2ccccn12 [F24] | 80 nM
[2H]c1ccn2c(C(=O)Nc3cc(-c4noc(C5CN(C(=O)OC)C5)n4)ccc3C)cnc2c1 [F97, methyl 3-(3-(3-(7-deuteroimidazo[1,2-a]pyridine-3-carboxamido)-4-methylphenyl)-1,2,4-oxadiazol-5-yl)azetidine-1-carboxylate] | 44 nM
Cc1ccc(-c2nc(N3CCC3)no2)cc1NC(=O)c1cnc2ccccn12 [F1] | 49 nM
COC(=O)N1CC(c2nc(-c3ccc(C)c(NC(=O)c4cnc5ccc(CCC#N)cn45)c3)no2)C1 [F64, methyl 3-(3-(3-(6-(2-cyanoethyl)imidazo[1,2-a]pyridine-3-carboxamido)-4-methylphenyl)-1,2,4-oxadiazol-5-yl)azetidine-1-carboxylate] | 64 nM
COC(=O)N1CC(c2nc(-c3ccc(C)c(NC(=O)c4cnc5ccc(N6CCOCC6)cn45)c3)no2)C1 [F83] | 40 nM
COC(=O)N1CC(c2nc(-c3ccc(C)c(NC(=O)c4cnc5cc(C(F)(F)F)ccn45)c3)no2)C1 [F57, methyl 3-(3-(4-methyl-3-(7-(trifluoromethyl)imidazo[1,2-a]pyridine-3-carboxamido)phenyl)-1,2,4-oxadiazol-5-yl)azetidine-1-carboxylate] | 130 nM
Cc1ccc(-c2noc(CN3CCC(F)(F)CC3)n2)cc1NC(=O)c1cnc2ccccn12 [F30] | 20 nM
Cc1ccc(-c2noc(NC3CCOCC3)n2)cc1NC(=O)c1cnc2cc(F)ccn12 [F81] | 84 nM
Cc1ccn2c(C(=O)Nc3cc(-c4noc(N5CCCC(C(F)(F)F)C5)n4)ccc3C)cnc2c1 (stereo not drawn) [F93] | 48 nM
Cc1ccc(-c2noc(CC3CCCOC3)n2)cc1NC(=O)c1cnc2ccccn12 (stereo not drawn) [F49] | 40 nM
COC(=O)N1CC(c2nc(-c3ccc(C)c(NC(=O)c4cnn5ccccc45)c3)no2)C1 [F48] | 80 nM
COC(=O)N1CC(c2nc(-c3ccc(C)c(NC(=O)c4cnc5ccc(COCC(F)(F)F)cn45)c3)no2)C1 [F84] | 38 nM
Cc1ccc(-c2nc(N3CCC(F)CC3)no2)cc1NC(=O)c1cnc2ccccn12 [F5] | 34 nM
Cc1ccc(Nc2noc(C3CCOCC3)n2)cc1NC(=O)c1cnc2ccccn12 [F69] | 39 nM
Cc1ccn2c(C(=O)Nc3cc(-c4noc(N5CC(F)(F)C5)n4)ccc3C)cnc2c1 [F86] | 93 nM
Cc1ccc(-c2noc([C@@H]3CC(F)(F)CN3S(C)(=O)=O)n2)cc1NC(=O)c1cnc2ccccn12 [F32] | 55 nM
Cc1ccc(-c2noc([C@@H]3CCCN(S(C)(=O)=O)C3)n2)cc1NC(=O)c1cnc2ccccn12 [F39] | 49 nM
[2H]c1ccc2ncc(C(=O)Nc3cc(-c4noc(C5CN(C(=O)OC)C5)n4)ccc3C)n2c1 [F98] | 43 nM
Cc1ccc(-c2noc(CN3CCOCC3)n2)cc1NC(=O)c1cnc2ccccn12 [F22, N-(2-methyl-5-(5-(morpholinomethyl)-1,2,4-oxadiazol-3-yl)phenyl)imidazo[1,2-a]pyridine-3-carboxamide] | 73 nM
[2H]C([2H])([2H])c1ccn2c(C(=O)Nc3cc(-c4noc(C5CN(C(=O)OC)C5)n4)ccc3C)cnc2c1 [F80, methyl 3-(3-(4-methyl-3-(7-methyl-d3-imidazo[1,2-a]pyridine-3-carboxamido)phenyl)-1,2,4-oxadiazol-5-yl)azetidine-1-carboxylate] | 44 nM
COC(=O)N1CC(c2nc(-c3ccc(C)c(NC(=O)c4cnc5ccc(CCC(C)(C)O)cn45)c3)no2)C1 [F67, methyl 3-(3-(3-(6-(3-hydroxy-3-methylbutyl)imidazo[1,2-a]pyridine-3-carboxamido)-4-methylphenyl)-1,2,4-oxadiazol-5-yl)azetidine-1-carboxylate] | 29 nM
COC(=O)N1CC(c2nc(-c3ccc(C)c(NC(=O)c4cnc5ccc(CCCC#N)cn45)c3)no2)C1 [F59, methyl 3-(3-(3-(6-(3-cyanopropyl)imidazo[1,2-a]pyridine-3-carboxamido)-4-methylphenyl)-1,2,4-oxadiazol-5-yl)azetidine-1-carboxylate] | 33 nM

same assay, conditions: Table 2; human Mo7e cells stimulated with SCF, 48 hours, CellTiter Glo; 1% FBS; read-out: c-kit (Mo7e)

SMILES | IC50
COCC(=O)NC1(c2nc(-c3ccc(C)c(NC(=O)c4cnc5ccccn45)c3)no2)COC1 [F141] | 700 nM
Cc1ccc(-c2noc(C3CN(S(=O)(=O)c4cn(C)cn4)C3)n2)cc1NC(=O)c1cnc2ccccn12 [F301] | 3970 nM
CC(=O)N1CCOC[C@@H]1c1nc(-c2ccc(C)c(NC(=O)c3cnc4ccccn34)c2)no1 [F168] | 358 nM
Cc1ccc(-c2noc(C3C[C@@H](O)CN3S(C)(=O)=O)n2)cc1NC(=O)c1cnc2ccc(F)cn12 (stereo partly drawn) [F272] | 1140 nM
Cc1ccc(-c2noc(C(NC(=O)OC(C)(C)C)C3COC3)n2)cc1NC(=O)c1cnc2ccccn12 (stereo not drawn) [F183] | 454 nM
Cc1ccc(-c2noc(C3CN(S(=O)(=O)C4CCOC4)C3)n2)cc1NC(=O)c1cnc2ccccn12 (stereo not drawn) [F159] | 157 nM
COC(=O)N1CC(c2nc(-c3ccc(C)c(NC(=O)c4cnc5ccc(CO)cn45)c3)no2)C1 [F266] | 523 nM
Cc1ccc(-c2noc(CC3CN(S(C)(=O)=O)C3)n2)cc1NC(=O)c1cnc2ccccn12 [F178] | 476 nM
Cc1ccc(-c2nc(CCOC3CCN(Cc4ccccc4)CC3)no2)cc1NC(=O)c1cnc2ccccn12 [F100] | 198 nM
COC(=O)N1CC(c2nc(-c3ccc(C)c(NC(=O)c4cnc5cc(C#N)ccn45)c3)no2)C1 [F235] | 181 nM
COCC(c1nc(-c2ccc(C)c(NC(=O)c3cnc4ccccn34)c2)no1)N1CCC(F)(F)C1 (stereo not drawn) [F237] | 109 nM
Cc1ccc(-c2noc(C3CN(C(=O)OC4(C)CC4)C3)n2)cc1NC(=O)c1cnc2ccccn12 [F126] | 891 nM
Cc1ccc(-c2noc(C3CCCNC3)n2)cc1NC(=O)c1cnc2ccccn12 (stereo not drawn) [F285] | 1670 nM
Cc1ccn2c(C(=O)Nc3cc(-c4noc(N5CC(S(C)(=O)=O)C5)n4)ccc3C)cnc2c1 [F281] | 1370 nM
Cc1ccc(-c2noc(C3CCNC3)n2)cc1NC(=O)c1cnc2ccccn12 (stereo not drawn) [F296] | 2440 nM
COC(=O)NC1(c2nc(-c3ccc(C)c(NC(=O)c4cnc5ccccn45)c3)no2)COC1 [F140] | 103 nM
Cc1ccc(-c2noc(CC3CCN(S(C)(=O)=O)CC3)n2)cc1NC(=O)c1cnc2ccccn12 [F215] | 175 nM
Cc1ccc(-c2noc([C@@H]3CCCO3)n2)cc1NC(=O)c1cnc2ccccn12 [F297] | 2790 nM
Cc1ccc(-c2noc(C[C@@H]3CCCN3C(=O)OC(C)(C)C)n2)cc1NC(=O)c1cnc2ccccn12 [F211] | 106 nM
Cc1ccc(-c2noc(C3CN(C(=O)OCCN4CCOCC4)C3)n2)cc1NC(=O)c1cnc2ccccn12 [F134] | 892 nM
Cc1ccc(-c2noc([C@@H]3CCCC(=O)N3)n2)cc1NC(=O)c1cnc2ccccn12 [F119] | 434 nM
COC(=O)N1CC(c2nc(-c3ccc(C)c(NC(=O)c4cnc5ccc(CC(C)(C)O)cn45)c3)no2)C1 [F247] | 328 nM

SMILES | IC50
Cc1ccc(-c2noc([C@H]3COCCN3C(=O)OC(C)(C)C)n2)cc1NC(=O)c1cnc2ccccn12 [F117] | 629 nM
Cc1ccc(-c2noc([C@H]3C[C@@H](O)CN3S(C)(=O)=O)n2)cc1NC(=O)c1cnc2ccc(F)cn12 [F273] | 1170 nM
COC(=O)N1CC(c2nc(-c3ccc(C)c(NC(=O)c4cnc5cc(C(F)(F)F)ccn45)c3)no2)C1 [F238] | 130 nM
COC1CN(Cc2nc(-c3ccc(C)c(NC(=O)c4cnc5ccccn45)c3)no2)C1 [F132] | 283 nM
Cc1ccc(-c2noc(C3(C)COC3)n2)cc1NC(=O)c1cnc2ccccn12 [F128] | 140 nM
CCN1CC(c2nc(-c3ccc(C)c(NC(=O)c4cnc5ccccn45)c3)no2)C1 [F271] | 1120 nM
COCCOC(=O)N1CC(c2nc(-c3ccc(C)c(NC(=O)c4cnc5ccccn45)c3)no2)C1 [F127] | 517 nM
Cc1ccc(-c2noc(CNC(=O)CN3CCOCC3)n2)cc1NC(=O)c1cnc2ccccn12 [F144] | 963 nM
Cc1ccc(-c2noc(C3C[C@@H](O)CN3)n2)cc1NC(=O)c1cnc2ccc(F)cn12 (stereo partly drawn) [F305] | 8080 nM
COC(=O)N1CC(c2noc(-c3ccc(C)c(NC(=O)c4cnc5ccccn45)c3)n2)C1 [F101] | 332 nM
Cc1ccc(-c2noc([C@H]3CCCN3C(=O)OC(C)(C)C)n2)cc1NC(=O)c1cnc2ccccn12 [F278] | 1280 nM
Cc1ccn2c(C(=O)Nc3cc(-c4noc(N5CCN6C(=O)OC[C@@H]6C5)n4)ccc3C)cnc2c1 [F255] | 129 nM
Cc1ccc(-c2noc(CC3CCNC3)n2)cc1NC(=O)c1cnc2ccccn12 (stereo not drawn) [F304] | 5230 nM
Cc1ccc(-c2noc([C@@H]3CCCNC3)n2)cc1NC(=O)c1cnc2ccccn12 [F203] | 826 nM
Cc1ccc(-c2noc([C@@H]3CCCN3C(=O)OC(C)(C)C)n2)cc1NC(=O)c1cnc2ccccn12 [F176] | 452 nM
COC(=O)N1CCOC(c2nc(-c3ccc(C)c(NC(=O)c4cnc5ccccn45)c3)no2)C1 (stereo not drawn) [F194] | 105 nM
COC1CN(C(=O)OCc2nc(-c3ccc(C)c(NC(=O)c4cnc5ccccn45)c3)no2)C1 [F138] | 270 nM
CCS(=O)(=O)N1CC(c2nc(-c3ccc(F)c(NC(=O)c4cnc5ccccn45)c3)no2)C1 [F155] | 120 nM
Cc1ccc(-c2noc(C3CCC(=O)N3)n2)cc1NC(=O)c1cnc2ccccn12 (stereo not drawn) [F192] | 672 nM
Cc1ccc(-c2noc(CN3CC(C#N)C3)n2)cc1NC(=O)c1cnc2ccccn12 [F129] | 310 nM
Cc1ccc(-c2noc(COC(=O)NC3CN(C)C3)n2)cc1NC(=O)c1cnc2ccccn12 [F137] | 792 nM
Cc1ccc(-c2noc(C3CN(S(=O)(=O)C4CCOCC4)C3)n2)cc1NC(=O)c1cnc2ccccn12 [F160] | 380 nM
